Assay type in all cases: functional
One experiment relates to Staphylococcus aureus. The experiment can be described thus: Antibacterial activity against Staphylococcus aureus SK&F 23390 assessed as […].
The subject of the next experiment is Enterococcus faecalis. The experiment can be described thus: Antibacterial activity against Streptococcus faecalis HH 34358 assessed as […].
In experiment [1] the test system is Escherichia coli. The experiment can be described thus: Antibacterial activity against Escherichia coli SK&F 12140 assessed as […].
For experiment [2], the system named is Escherichia coli. The experiment can be described thus: Antibacterial activity against Escherichia coli HH 33779 assessed as […].
The next experiment concerns Klebsiella pneumoniae. As to the kind of experiment: Antibacterial activity against Klebsiella pneumoniae SK&F 1200 assessed as […].
For another experiment, the system named is Serratia marcescens. As to the kind of experiment: Antibacterial activity against Serratia marcescens ATCC 13880 assessed as […].
The next experiment concerns Morganella morganii. As to the kind of experiment: Antibacterial activity against Proteus morganii 179 assessed as […].
For another experiment, the system named is Klebsiella aerogenes. The experiment can be described thus: Antibacterial activity against Enterobacter aerogenes ATCC 13048 assessed as […].

Converted amounts (≈) assume the structure as drawn.

With `CC(=O)OCC1=C(C(=O)O)N2C(=O)[C@@H](NC(=O)Cc3cccs3)[C@H]2SC1` [CEPHALOTHIN], the MIC is 0.2 µM (≈ 0.0793 µg/mL) in the experiment with Staphylococcus aureus; 14 µM (≈ 5.55 µg/mL) in the experiment on Enterococcus faecalis; 7 µM (≈ 2.78 µg/mL) in the experiment with Escherichia coli [1]; 7 µM (≈ 2.78 µg/mL) with Escherichia coli [2]; 3.6 µM (≈ 1.43 µg/mL) in the experiment on Klebsiella pneumoniae; more than 453 µM with Serratia marcescens. In addition, the minimum inhibitory concentration (MIC) was more than 453 µM in the experiment with Morganella morganii and 14 µM (≈ 5.55 µg/mL) in the experiment with Klebsiella aerogenes.

The MIC is the least concentration at which growth counts as inhibited.

Values taken from ChEMBL document CHEMBL3272001, “Nuclear analogues of beta-lactam antibiotics. 4. Total synthesis of bisnorisopenicillins from beta-lactam precursors” (1978).
